Data set [1] can be described thus: Water solubility was evaluated. In kind it is ADME. The note with it: read-out: Ws.
For data set [2], the species on record is Rattus norvegicus. Kind of data set: Compound was evaluated for the amount of protein solubilized, expressed as percentage weight of freeze-dried microsomes (20 mg) of rat liver. In kind it is functional.
For data set [3], the species on record is Rattus norvegicus. The data set is described as follows: Compound was evaluated for the amount of protein solubilized, expressed as percentage weight of freeze-dried mitochondria (20 mg) of rat liver. In kind it is functional, organism-based.
The species entered for data set [4] is Rattus norvegicus. The data set is described as follows: Compound was evaluated for the amount of protein solubilized, expressed as percentage weight of freeze-dried nuclear membrane (100 mg) of rat liver. In kind it is functional.

Converted amounts (≈) assume the structure as drawn. Some results are limits rather than exact numbers.

With `CCCCCCCCCCCC[S+]([O-])CCC(=O)NC(CO)(CO)CO` (configuration not stated), the solubility in data set [1] is greater than 6000 µg/mL. In addition, the Weight in the data set listed under Rattus norvegicus [2] was 62.5%; in the data set filed under Rattus norvegicus [3] it was 65.6%; in the data set filed under Rattus norvegicus [4], 52.4%.
`CCCCCCCCCCCC[S+]([O-])CCC(=O)NC(CO)(CO)CO[C@@H]1O[C@H](CO)[C@H](O)[C@H](O)[C@H]1O` (some centres not stated): the solubility in data set [1] was greater than 10000 µg/mL.
For the molecule `O=C(CC[S+]([O-])CCC(F)(F)C(F)(F)C(F)(F)C(F)(F)C(F)(F)C(F)(F)F)NC(CO[C@H]1O[C@@H](CO)[C@@H](O)[C@@H](O)[C@@H]1O)(CO[C@@H]1O[C@H](CO)[C@H](O)[C@H](O)[C@H]1O)CO[C@@H]1O[C@H](CO)[C@H](O)[C@H](O)[C@H]1O` (some centres not stated), the solubility in data set [1] was greater than 10000 µg/mL.
In the case of `CCCCCCCC[S+]([O-])CCC(=O)NC(CO)(CO)CO` (configuration not stated), the solubility in data set [1] is greater than 10000 µg/mL. Besides, the Weight in the data set filed under Rattus norvegicus [2] stood at 71%; in the data set filed under Rattus norvegicus [3] it was 69.8%; in the data set filed under Rattus norvegicus [4] it was 55.5%.
For `CC(C)(C)CC(C)(C)c1ccc(OCCO)cc1`, the Weight in the data set listed under Rattus norvegicus [2] was found to be 76.2%; in the data set filed under Rattus norvegicus [3], 74.9%; in the data set listed under Rattus norvegicus [4], 62.2%.
With `O=C(CC[S+]([O-])CCC(F)(F)C(F)(F)C(F)(F)C(F)(F)C(F)(F)C(F)(F)F)NC(CO)(CO)CO` (configuration not stated), the solubility in data set [1] was 1200 µg/mL (≈ 2100 µM). Further, the figures for the Weight in the data set filed under Rattus norvegicus [2], in the data set filed under Rattus norvegicus [3] and in the data set filed under Rattus norvegicus [4] were 32.6%, 30.3% and 25.5%, respectively.
As for `CCCCCCCCCCCCCCCC[S+]([O-])CCC(=O)NC(CO)(CO)CO` (configuration not stated), the solubility in data set [1] turned out to be 85 µg/mL (≈ 189 µM). Further, the Weight in the data set listed under Rattus norvegicus [2] came out at 58.4%; in the data set listed under Rattus norvegicus [3], 58.6%; in the data set listed under Rattus norvegicus [4] it was 45.7%.
Consider `O=C(CC[S+]([O-])CCC(F)(F)C(F)(F)C(F)(F)C(F)(F)C(F)(F)C(F)(F)C(F)(F)C(F)(F)F)NC(CO)(CO)CO` (configuration not stated), for which the solubility in data set [1] stood at 25 µg/mL (≈ 37.2 µM).
Regarding `CCCCCCCCCC[S+]([O-])CCC(=O)NC(CO)(CO)CO` (configuration not stated), the solubility in data set [1] was greater than 10000 µg/mL. Further, the Weight in the data set listed under Rattus norvegicus [2] stood at 68.9%; in the data set listed under Rattus norvegicus [3] it was 71%; in the data set listed under Rattus norvegicus [4] it was 57.4%.
As to `O=C(CC[S+]([O-])CCC(F)(F)C(F)(F)C(F)(F)C(F)(F)C(F)(F)C(F)(F)C(F)(F)C(F)(F)F)NC(CO)(CO)COC1O[C@H](CO)[C@H](O)[C@H](O)[C@H]1O` (some centres not stated), the solubility in data set [1] is greater than 1500 µg/mL.
